The test system of test [1] is adipose tissue-specific genes. Particulars: Kletzien et al., 1992; cited from earlier work.
Test [2] has as its system truncated (402 amino acids) human β3-adrenergic receptor. The conditions noted are these: cited from earlier work; for inhibition at the truncated receptor: Emorine et al., 1989.
Test [3] addresses T1, full length (408 amino acids) human β3-adrenergic receptor (Homo sapiens, UniProt P13945).
T1 construct: CHO cells expressing the full length human β3 receptor are harvested; expressed in transfected cells
Kind of test: Functional activity (adenylyl cyclase) at full-length human β3 receptor expressed in CHO cells. The test is classed as biochemical.
Description: Culture medium was removed and cells were washed in phosphate-buffered saline and then harvested in 25 mM HEPES (pH 8.0) buffer containing 2 mM MgCl2 and 1 mM EDTA. Cell were homogenized and centrifuged at 48,000×g for 15 min. to obtain crude membranes. Membrane pellets were resuspended and used directly or frozen at -80° until used. […] Membranes (5-15 μg of protein) were preincubated at 4°, in a volume of 40 μl, with the specified drugs for 15 min. Adenylyl cyclase reactions were initiated by addition of substrate mixture and were terminated after 30 min at 30°. […] Concentration-response data were analyzed by nonlinear regression analysis with a one-site mass action equation for transfected CHO cells (Enzfitter, Elsevier Biosoft).
Chinese hamster ovary (CHO) cells are transfected with constructs based upon the expression vector pRc/CMV. […] Transfection of CHO cells with DNA constructs is accomplished by the CaPO4 -DNA precipitation method as described in Maniatis et al., ibid. To obtain cells that stably express these DNA constructs, transfected cells are selected based upon their resistance to G418, which is conferred by the neomycin-resistance gene contained in pRc/CMV. Cells that survive selective conditions (e.g. 800 μg/ml G418) are then cloned by limiting dilution.
CHO cells expressing the full length human β3 receptor are harvested and membranes prepared as described by Granneman et al., ibid. Adenylyl cyclase activity is then determined in response to various agents known or thought to interact with the β3 receptor, using the method of Salomon, ibid. Agonists are identified by the ability to increase cyclic AMP generation above basal levels. Antagonists are identified by their ability to decrease adenylyl cyclase activity that is stimulated by 100 nM isoproterenol.

The structures appear in SMILES notation.

T1 sequence (P13945 whole entry): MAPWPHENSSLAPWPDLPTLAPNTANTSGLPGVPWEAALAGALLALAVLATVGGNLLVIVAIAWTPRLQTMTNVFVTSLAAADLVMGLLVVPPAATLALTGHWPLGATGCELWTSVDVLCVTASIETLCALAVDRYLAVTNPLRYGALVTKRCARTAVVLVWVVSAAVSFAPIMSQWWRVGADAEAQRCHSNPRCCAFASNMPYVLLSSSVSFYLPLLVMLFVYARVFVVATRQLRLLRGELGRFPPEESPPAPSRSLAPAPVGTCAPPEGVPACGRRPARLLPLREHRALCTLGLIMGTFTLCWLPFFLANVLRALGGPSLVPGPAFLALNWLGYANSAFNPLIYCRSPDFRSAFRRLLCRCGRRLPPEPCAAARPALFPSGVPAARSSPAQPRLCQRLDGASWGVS

On to `CC1(COc2ccc(CC3SC(=O)NC3=O)cc2)CCCCC1` (stereo not shown) [Cigilazone], for which, in test [1], the “effect on expression of adipose tissue-specific genes” value is “augment the expression of adipose tissue-specific genes”.

For `CC(Cc1ccc(OCC(=O)O)cc1)NCC(O)c1cccc(Cl)c1` (stereo not shown) [BRL 37344], the agonist character result in test [2] and in test [3] (full length receptor) was “partial agonists” throughout. The activation potency result in test [3] (full-length receptor) is on record as “relatively low potency”.

With `CC(C)NCC(O)COc1cccc2ccccc12` (stereo not shown) [Propranolol], the “inhibition at the truncated receptor” value in test [2] was “essentially inactive”.

Take `C=CCc1ccccc1OCC(O)CNC(C)C` (stereo not shown) [alprenolol]: the “inhibition at the truncated receptor” value in test [2] was “essentially inactive”. The “potency of inhibition of the full length receptor (antagonists)” value in test [3] (full length receptor) is “submicromolar potencies”.

The values above are taken from patent US5364772A, “DNA molecule encoding the β3 -adrenergic receptor” (Wayne State University, priority 1992, dated 1994).
